Measurements published in patent publication US20260018245A1, “SYSTEMS AND METHODS FOR IDENTIFYING AND TARGETING COLLATERAL LETHAL GENES” (The Regents of the University of Michigan, priority 2022, published 2026).

What was measured:
Format in all cases: cell-based
[1] = tested on: oxidative MTHFD2 flux in SKOV3 cells; test: Oxidative MTHFD2 flux by 4-[2H]-glucose tracing; conditions: SKOV3 treated with rotenone and MTHFD2 inhibitor 60 μM
Description: (§1) FIG. 4 Dynamic flux analysis with parallel tracers to quantify oxidative MTHFD2 flux. a, Oxidative MTHFD2 flux and percentage decrease in OCRfollowing MTHFD2 inhibition in SKOV3 cells treated with rotenone (0, 31, 62, 125, 250, 500 or 1,000 nM) and MTHFD2 inhibitor (0 or 60 μM). Oxidative MTHFD2 flux is proportional to [2H1]-serine/[2H1]-NADH enrichment in cells cultured with 4-[2H]-glucose for 8 h. Percentage decrease in OCR is estimated in SKOV3 cells treated with 60 μM MTHFD2i compared with 0 μM MTHFD2i. Oxidative flux data are combined from two independent experiments (n=4), with mean±s.d. estimated using error propagation. […] (n=6) and analysed using two-tailed Welch's t-test. e, Ratio of [2H2]-serine/[2H]-NADH enrichment in SKOV3 and OVCAR8 cells at 2 h after combined tracer introduction of 4-[2H]-glucose and [2H]-formate, representing the normalized contribution of [2H]-NADH to [2H2]-serine via oxidative MTHFD2 flux. Data combined from two independent experiments (n=6), with mean±s.d. estimated using error propagation and analysed by two-tailed Welch's t-test. f, [2H2]-serine enrichment in SKOV3 cells expressing shScramble or shUQCR11 at 2 h after combined tracer introduction of 4-[2H]-glucose and [2H]-formate. […] (n=5) and analysed using one-tailed non-parametric Mann-Whitney test. […]

[2] = tested on: isogenic SKOV3 cells (shScramble, shUQCR11); test: Nucleotide profiling after MTHFD2 inhibitor vs vehicle
Text: FIG. 14 Analysis of global metabolomics and nucleotide pathways of ovarian cancer lines with and without UQCR11 deletion. (a) Pathway enrichment analysis using metabolic pathways in the KEGG database comparing UQCR11-intact and -null ovarian cancer lines from the CCLE panel (n=50). Pathway coverage represents fraction of metabolites in the KEGG pathway that have available data. Data analyzed using weighted z-test for pathway analysis built into MetaboAnalyst 5.0. (b) Pathway enrichment analysis on all metabolite concentrations measured in SKOV3 (UQCR11-intact) and OVCAR8, HeyA8 and CAOV3 (UQCR11-null) cells for metabolites involved in nucleotide metabolism. Pathway coverage, that is, percentage of metabolites measured from each pathway are represented by a gradient color-scale. […] Data analyzed using weighted z-test for pathway analysis built into MetaboAnalyst 5.0. […] Data are combined from two independent experiments and analyzed using two-sample t-tests corrected for multiple hypothesis testing, built into MetaboAnalyst 5.0. […] (d) Metabolites involved in pyrimidine synthesis and salvage are measured in SKOV3 (UQCR11-intact) and OVCAR8, HeyA8 and CAOV3 (UQCR11-null) cells and overlaid onto the pyrimidine metabolic pathway map. […] Data are combined from two independent experiments and analyzed using two-sample t-tests corrected for multiple hypothesis testing, built into MetaboAnalyst 5.0 (n=6). […]

[3] = tested on: reductive MTHFD2 flux in SKOV3 cells; test: Reductive MTHFD2 flux by 2,3,3-[2H]-serine tracing; conditions: SKOV3 treated with MTHFD2 inhibitor 60 μM
Description: as §1

SMILES: Cc1c(N2CCN(C)[C@@H](C)C2)ccc2c3c(c(=O)oc12)CN(C(=O)c1ccc(NS(C)(=O)=O)c(OC(F)(F)F)c1)CC3 [DS18561882]
- oxidative MTHFD2 flux [1]: suppressed
- differentially abundant metabolites (nucleotides) [2]: three out of 49
- reductive MTHFD2 flux [3]: greatly reduced
